Source: the supplement of paper PMC7600603

Columns and labels:
DLD1 NRF2-WT [1] = conditions: 72 h; CellTiter-Glo viability
In short: (§1)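 DLD1 colorectal cancer cells, an isogenic pair either NRF2 wild-type or carrying a CRISPR gain-of-function, were cultured in DMEM with 10% FBS and treated in 384-well plates with library compounds at 5 concentrations across a 10,000-fold range. CellTiter-Glo viability was read on a Pherastar FS reader after 72 h and normalised to vehicle wells and 100-μM positive-control wells. Four-parameter logistic dose-response fits were applied. EC50 and drug sensitivity score, a normalised area under the curve, were taken from these fits.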

DLD1 NRF2-GOF [2] = conditions: 72 h; CellTiter-Glo viability
In short: as §1

DLD1 NRF2-WT [3] = assay: drug sensitivity score (DSS) cytotoxicity (DSS score); higher = more toxic; extreme values may be limits of the assay; conditions: 72 h; CellTox Green cytotoxicity
In short: (§2)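 Isogenic DLD1 colorectal cancer cells differing in NRF2 status, one line edited by CRISPR, were cultured in DMEM with 10% FBS and treated in 384-well plates with library compounds at 5 concentrations spanning a 10,000-fold range. Plates were read after 72 h with CellTox Green on a Pherastar FS reader, and signals were normalised to vehicle wells and 100-μM positive-control wells. Cytotoxicity was summarised as TC50 and as a drug sensitivity score, a normalised area under the curve, both from logistic dose-response fits.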

DLD1 NRF2-GOF [4] = assay: as above; conditions: 72 h; CellTox Green cytotoxicity
In short: as §2

DLD1 NRF2-WT [5] = assay: TC50 cytotoxicity; higher = less toxic; conditions: 72 h; CellTox Green cytotoxicity
In short: as §2

DLD1 NRF2-GOF [6] = assay: TC50 cytotoxicity; higher = less toxic; conditions: 72 h; CellTox Green cytotoxicity
In short: as §2

DLD1 NRF2-WT [7] = assay: drug sensitivity score (DSS) viability (DSS score); higher = more sensitive; extreme values may be limits of the assay; conditions: 72 h; CellTiter-Glo viability
In short: as §1

DLD1 NRF2-GOF [8] = assay: as above; conditions: 72 h; CellTiter-Glo viability
In short: as §1

| EC50 viability (DLD1 NRF2-WT [1]) [µM] | EC50 viability (DLD1 NRF2-GOF [2]) [µM] | Compound | drug sensitivity score (DLD1 NRF2-WT [3]) | drug sensitivity score (DLD1 NRF2-GOF [4]) | TC50 cytotoxicity (DLD1 NRF2-WT [5]) [µM] | TC50 cytotoxicity (DLD1 NRF2-GOF [6]) [µM] | drug sensitivity score (DLD1 NRF2-WT [7]) | drug sensitivity score (DLD1 NRF2-GOF [8]) |
| --- | --- | --- | --- | --- | --- | --- | --- | --- |
| 0.148 | 0.253 | CCNc1nc(Nc2cc(F)c(C(=O)N3CCOCC3)cc2OC)ncc1C(F)(F)F [GNE-7915] | 0 | 0 | > 1 | > 1 | 3.3 | 2.9 |
| 0.0531 | 0.0444 | Cc1ccc(Nc2nccc(N(C)c3ccc4c(C)n(C)nc4c3)n2)cc1S(N)(=O)=O [Pazopanib] | 0 | 0 | > 10 | > 10 | 6.9 | 10.2 |
| > 1 | 0.163 | Cc1cccc(-c2nn3c(c2-c2ccnc4ccc(C(N)=O)cc24)CCC3)n1 [Galunisertib] | 0 | 0 | > 1 | > 1 | 1.6 | 2.6 |
| 0.171 | 0.195 | CO[C@@H](C)Cn1c(=O)n(C)c2cnc3ccc(-c4cncc(C(C)(C)O)c4)cc3c21 | 0 | 0 | > 2.5 | > 2.5 | 10.5 | 9.5 |
| 3.6 | 1.52 | O=C(O)c1ccc2c(c1)nc(Nc1cccc(Cl)c1)c1ccncc12 [Silmitasertib] | 0.3 | 0 | > 10 | > 10 | 2.1 | 2.8 |
| > 1 | > 1 | O=C(Nc1ccc(OC(F)(F)Cl)cc1)c1cnc(N2CC[C@@H](O)C2)c(-c2cc[nH]n2)c1 [NVP-ABL001] | 0 | 0 | > 1 | > 1 | 0.1 | 2.3 |
| 1.78 | 3.13 | Nc1cc(C(F)(F)F)c(-c2cc(N3CCOCC3)nc(N3CCOCC3)n2)cn1 [Buparlisib] | 0.4 | 0 | > 10 | > 10 | 7 | 4.2 |
| 0.12 | 0.179 | FC(F)c1nc2ccccc2n1-c1nc(N2CCOCC2)nc(N2CCOCC2)n1 [ZSTK474] | 0 | 0 | > 10 | > 10 | 11.4 | 6.2 |
| > 1 | > 1 | Oc1ccc2c(c1)CC[C@H](c1ccccc1)[C@@H]2c1ccc(OCCN2CCCC2)cc1 [Lasofoxifene] | 0 | 0 | > 1 | > 1 | 0 | 0 |
| > 1 | 0.0017 | O=C(O)CC[C@H]1CC[C@@](c2cc(F)ccc2F)(S(=O)(=O)c2ccc(Cl)cc2)CC1 [MK-0752] | 0 | 0 | > 1 | > 1 | 0.7 | 9.1 |
| 0.0385 | 0.093 | COc1cc(Nc2ncc(F)c(Nc3ccc4c(n3)N(COP(=O)(O)O)C(=O)C(C)(C)O4)n2)cc(OC)c1OC [Fostamatinib] | 0 | 0.2 | > 2.5 | > 2.5 | 6.2 | 7.4 |
| > 10 | 0.349 | N#Cc1ccnc(N2C(=O)CC[C@H]2C(=O)N(c2cncc(F)c2)[C@H](C(=O)NC2CC(F)(F)C2)c2ccccc2Cl)c1 [Ivosidenib] | 0 | 0 | > 10 | > 10 | 0.5 | 6.1 |
| 2.08 | 2 | CN(C)C[C@@H]1CCn2cc(c3ccccc32)C2=C(C(=O)NC2=O)c2cn(c3ccccc23)CCO1 [Ruboxistaurin] | 0 | 0.2 | > 10 | > 10 | 5.1 | 5 |
| 0.926 | 1.19 | CNC(=O)c1nn(C)c2c1C(C)(C)Cc1cnc(Nc3ccc(N4CCN(C)CC4)cc3)nc1-2 [Milciclib] | 0.5 | 0 | > 10 | > 10 | 10.8 | 8.5 |
| 1.41 | 1.89 | Cc1cnc(Nc2ccc(OCCN3CCCC3)cc2)nc1Nc1cccc(S(=O)(=O)NC(C)(C)C)c1 [Fedratinib] | 3.8 | 4.3 | 2.4 | 2.5 | 9.6 | 8.2 |
| 0.0522 | > 1 | NC1(c2ccc(-c3nc4ccn5c(=O)[nH]nc5c4cc3-c3ccccc3)cc2)CCC1 [MK-2206] | 0 | 0 | > 1 | > 1 | 4.3 | 0.7 |
| > 1 | > 1 | C[C@@H](Oc1ccc2[nH]nc(/C=C/c3cnn(CCO)c3)c2c1)c1c(Cl)cncc1Cl | 0 | 0 | > 1 | > 1 | 1.4 | 2 |
| 0.004 | 0.0049 | O=C(/C=C/c1cccnc1)NCCCCC1CCN(C(=O)c2ccccc2)CC1 [Daporinad] | 0 | 0 | > 1 | > 1 | 27.6 | 25.9 |
| 0.771 | 1.34 | O=C(Nc1cc(Cl)cc2c1[nH]c1cnccc12)c1cccnc1 [PS-1145] | 0 | 0 | > 25 | > 25 | 6.2 | 5.2 |
| 0.0279 | 0.0478 | COc1cc(Nc2ncc3c(n2)-c2ccc(Cl)cc2C(c2c(F)cccc2OC)=NC3)ccc1C(=O)O [Alisertib] | 2.8 | 6.6 | 0.939 | 0.205 | 10.3 | 15.9 |

| EC50 viability (DLD1 NRF2-WT [1]) [µM] | EC50 viability (DLD1 NRF2-GOF [2]) [µM] | Compound | drug sensitivity score (DLD1 NRF2-WT [3]) | drug sensitivity score (DLD1 NRF2-GOF [4]) | TC50 cytotoxicity (DLD1 NRF2-WT [5]) [µM] | TC50 cytotoxicity (DLD1 NRF2-GOF [6]) [µM] | drug sensitivity score (DLD1 NRF2-WT [7]) | drug sensitivity score (DLD1 NRF2-GOF [8]) |
| --- | --- | --- | --- | --- | --- | --- | --- | --- |
| 1.5 | 2.87 | CCn1c(-c2nonc2N)nc2c(C#CC(C)(C)O)ncc(OC[C@H]3CCCNC3)c21 | 0 | 0 | > 10 | > 10 | 4.3 | 2.4 |
| 2.95 | 3.55 | CCOC(=O)CCNc1cc(N2CCc3ccccc3CC2)nc(-c2ccccn2)n1 [GSK-J4] | 0 | 7.8 | > 100 | 2.8 | 17 | 16.4 |
| 0.0555 | 0.0219 | O=C(Nc1c[nH]nc1-c1nc2ccc(CN3CCOCC3)cc2[nH]1)NC1CC1 [AT9283] | 2.6 | 9.8 | > 1 | 0.0267 | 8.6 | 15.1 |
| > 25 | > 25 | COc1cc2c(cc1OCCCN1CCCC1)N=C(N)C21CCC1 [A-366] | 0 | 0 | > 25 | > 25 | 0 | 0 |
| 1.5 | 1.09 | CC[C@@]1(O)C(=O)OCc2c1cc1n(c2=O)Cc2cc3c(CN(C)C)c(O)ccc3nc2-1 [Topotecan] | 3.1 | 1.9 | 2.2 | 3.39 | 8.1 | 9.2 |
| 1.68 | 1.11 | NCCNc1ccc(NCCN)c2c1C(=O)c1ccncc1C2=O [Pixantrone] | 0 | 0 | > 10 | > 10 | 4 | 4.9 |
| > 25 | 2.36 | CN[C@@H](C)C(=O)N[C@H](C(=O)N1CCC[C@H]1c1nc(C(=O)c2ccc(F)cc2)cs1)C1CCCCC1 [NVP-LCL161] | 0 | 0 | > 25 | > 25 | 2.1 | 4.8 |
| 0.103 | 0.114 | CN1CCN(C(=O)c2ccc3cc(CCNc4ncnc5ccc(C#N)cc45)ccc3c2)CC1 [Senexin B] | 0 | 0 | > 1 | > 1 | 3.5 | 3.6 |
| 10.5 | 14.2 | NC(=O)N1CCC(CC(=O)N2CCC([C@H]3c4ncc(Br)cc4CCc4cc(Cl)cc(Br)c43)CC2)CC1 [Lonafarnib] | 6.3 | 6.7 | 23.5 | 24.2 | 11 | 9.7 |
| > 2.5 | > 2.5 | CN1CCN(C2CCN(C(=O)Nc3cc(Oc4ccc(NC(=O)C5(C(=O)Nc6ccc(F)cc6)CC5)c(F)c4)ccn3)CC2)CC1 [Golvatinib] | 0 | 0 | > 2.5 | > 2.5 | 1.2 | 0 |
| 0.62 | > 10 | Cc1sc2c(c1C)C(c1ccc(Cl)cc1)=N[C@@H](CC(=O)NCCCCNC(=O)COc1cccc3c1C(=O)N(C1CCC(=O)NC1=O)C3=O)c1nnc(C)n1-2 (stereo partly drawn) [dBET1] | 0 | 0 | > 10 | > 10 | 6.5 | 0.7 |
| 0.137 | 0.149 | COc1cccc2c1C(=O)c1c(O)c3c(c(O)c1C2=O)C[C@@](O)(/C(CO)=N/NC(=O)CCCCCN1C(=O)C=CC1=O)C[C@@H]3O[C@H]1C[C@H](N)[C@H](O)[C@H](C)O1 [Aldoxorubicin] | 0 | 0 | > 1 | > 1 | 8.5 | 7.6 |
| 0.25 | 0.626 | CCn1c(=O)c(-c2ccc(Cl)cc2Cl)cc2cnc(Nc3ccc(N4CCNCC4)c(F)c3)nc21 [FRAX486] | 0 | 0 | > 5 | > 5 | 9.8 | 7.1 |
| > 10 | 0.315 | CC(C)[C@H]1C(=O)N[C@@H](CCCNC(=N)N)C(=O)NCC(=O)N[C@@H](CC(=O)O)C(=O)N[C@H](Cc2ccccc2)C(=O)N1C [Cilengitide] | 0 | 0 | > 10 | > 10 | 0 | 3.9 |
| 1.59 | 1.78 | COc1cc(N2CCN(C)CC2)ccc1Nc1nccc(-c2cn(C)c3cnccc23)n1 [AZ191] | 0.3 | 0 | > 10 | > 10 | 7 | 5.2 |
| 1.94 | > 30 | COc1ccccc1S(=O)(=O)Nc1ccc2c(c1)CN(C)C(=O)N2 [PFI-1] | 0 | 0 | > 30 | > 30 | 3.2 | 0 |
| 1.94 | 2.83 | CC(C)(C)Cn1c(N)nc2ccc(-c3[nH]c(C(C)(C)C)nc3-c3ccc(F)cc3)nc21 [Ralimetinib] | 0 | 0 | > 10 | > 10 | 4.3 | 2.9 |
| > 10 | > 10 | FC(F)(F)c1ccc(CNc2ccc(Cc3c[nH]c4ncc(Cl)cc34)cn2)cn1 [Pexidartinib] | 0 | 0 | > 10 | > 10 | 0 | 0.9 |
| 1 | 1.59 | CS(=O)(=O)N1CCN(Cc2cc3nc(-c4cccc5[nH]ncc45)nc(N4CCOCC4)c3s2)CC1 [Pictilisib] | 0.1 | 0 | > 10 | > 10 | 6.8 | 5.8 |
| 0.65 | 0.477 | Nc1ccn([C@@H]2O[C@H](CO)[C@@H](O)[C@@H]2O)c(=O)n1 [Cytarabine] | 0 | 0 | > 10 | > 10 | 5 | 6.5 |

| Compound | EC50 viability (DLD1 NRF2-WT [1]) [µM] | EC50 viability (DLD1 NRF2-GOF [2]) [µM] | drug sensitivity score (DLD1 NRF2-WT [3]) | drug sensitivity score (DLD1 NRF2-GOF [4]) | TC50 cytotoxicity (DLD1 NRF2-WT [5]) [µM] | TC50 cytotoxicity (DLD1 NRF2-GOF [6]) [µM] | drug sensitivity score (DLD1 NRF2-WT [7]) | drug sensitivity score (DLD1 NRF2-GOF [8]) |
| --- | --- | --- | --- | --- | --- | --- | --- | --- |
| CCC/C=C/C=C/C(=O)O[C@H]1/C(=C/C(=O)OC)C[C@H]2C[C@H]([C@@H](C)O)OC(=O)C[C@H](O)C[C@@H]3C[C@H](OC(C)=O)C(C)(C)[C@](O)(C[C@@H]4C/C(=C/C(=O)OC)C[C@H](/C=C/C(C)(C)[C@]1(O)O2)O4)O3 [Bryostatin 1] | > 0.1 | > 0.1 | 0 | 0 | > 0.1 | > 0.1 | 0.2 | 2.8 |
